Data taken from US7259140B2, “Heparin-binding peptides and uses thereof” (Thomas Jefferson University, priority 2003, dated 2007).
Ends that are not written are not given here.

What was measured:
Format in all cases: biochemical, human
[1] = test system: Lovenox ® Activity in Blood from Patients Treated with Lovenox ®; experiment: Neutralizing Lovenox activity in blood from patients treated with Lovenox (anti-Factor Xa assay); conditions: Peptide 12 μg/ml
Experimental: Blood was obtained from volunteers who were being treated with Lovenox® for their medical conditions after obtaining signatures on informed consent forms as approved by the Institutional Review Board. The assays to test neutralization of Lovendx® were performed as described for Table 2. A dose response from 1-60 μg/ml was evaluated as in Table 2.
The dose response pattern for the effective peptides was similar to the dose response in control plasma to which Lovenox® had been added. Each data point represents the mean and standard deviation of triplicate analyses on the same sample of blood from each patient.

[2] = test system: anti-Factor Xa Activity of the Low Molecular Weight Heparin Lovenox ®; experiment: Anti-Factor Xa assay (Stachrom Heparin kit): neutralization of Lovenox in citrate or plasma in vitro; conditions: for Lovenox ® Neutralized: Lovenox 0.7 U/ml
Experimental: (§1) The ability of peptides such as (ARKKAAKA)3VLVLVLVL (SEQ ID NO:5) to neutralize the anti-Factor Xa activity of UFH and LMWH in vitro was tested using the Stachrom Heparin kit (Diagnostica Stago), a standard hematology laboratory assay used to measure the anti-Factor Xa activity of heparin. The assay was performed using the low molecular weight heparin enoxaparin sodium (Lovenox®, Aventis Pharmaceuticals, Inc.), unfractionated heparin (UFH), or the non-heparin glycosaminoglycan danaparoid sodium (Orgaran®, Organon Inc., West Orange, N.J.) in 0.32% citrate or in plasma anticoagulated with 0.32% citrate. Enoxaparin is commonly used clinically as a low molecular weight heparin (LMWH). Danaparoid is commonly used clinically as a non-heparin glycosaminoglycan anticoagulant. Currently, the only FDA approved drug to target UFH is protamine, which is not effective in vivo against LMWH or a non-heparin glycosaminoglycan such as danaparoid. Buffer and ATIII are added to form the heparin/ATIII complex, peptide is added, then Factor Xa, reporter dye substrate for Factor Xa activity, and stop solution, and the dye concentration is read at 405 nm. The absorbance of the dye increases with increasing Factor Xa activity, and thus is inversely proportional to the heparin (anti-Factor Xa activity) concentration. Peptides were tested in plasma obtained from three volunteers (A, B, and C). Platelet function inhibitors PG12 and theophylline were added to the blood immediately upon collection.
Results. […] (ARKKAAKA)3VLVLVLVL (SEQ ID NO:5) and VLVL(ARKKAAKA)3ARKKCAKA (SEQ ID NO:38) were able to neutralize about 0.4 U/ml anti-Factor Xa activity of LMWH at a concentration of 12 μg/ml, which would be an effective dose for patients. (AKKARA)6 (SEQ ID […]), (ARKKAAKA)4 (SEQ ID NO:31) and (ARKKAAKA)3ARKKCAKA […] 0.3-0.35 U/ml. In contrast, 12 μg protamine only neutralized about 0.25 U/ml of LMWH under these conditions.

[3] = test system: anti-Factor Xa Activity of Unfractionated Heparin; experiment: Anti-Factor Xa assay: neutralization of unfractionated heparin in citrate or plasma in vitro; conditions: for Unfractionated Heparin Neutralized: UFH 0.7 U/ml
Experimental: as §1, with “collection. […]” for “collection.”

Sequence: ARKKAAKAAAAAAAAAAAAAAAAAARKKAAKA [ARKKAAKA(A16)ARKKAAKA, reference compound]
- Lovenox ® Neutralized ([1]; blood of Lovenox-treated Patient Number 1): 0 U/ml
- Lovenox ® Neutralized ([1]; blood of Lovenox-treated Patient Number 2): 0.011 U/ml
- Lovenox ® Neutralized ([1]; blood of Lovenox-treated Patient Number 3): 0.055 U/ml
- Lovenox ® Neutralized ([1]; blood of Lovenox-treated Patient Number 4): 0.035 U/ml
- Lovenox ® Neutralized ([1]; blood of Lovenox-treated Patient Number 5): 0.005 U/ml
- Lovenox ® Neutralized ([1]; blood of Lovenox-treated Patient Number 8): 0 U/ml
- Lovenox ® Neutralized ([1]; blood of Lovenox-treated Patient Number 9): 0.009 U/ml
- Lovenox ® Neutralized ([1]; blood of Lovenox-treated Patient Number 10): 0.062 U/ml
- Lovenox ® Neutralized ([1]; blood of Lovenox-treated Patient Number 11): 0.007 + U/ml
- Lovenox ® Neutralized ([2]; 1 μg/ml Peptide, A Plasma): 0.010 ± 0.008 U/ml
- Lovenox ® Neutralized ([2]; 1 μg/ml Peptide, B Plasma): 0.027 ± 0.014 U/ml
- Lovenox ® Neutralized ([2]; 1 μg/ml Peptide, C Plasma): 0.0 U/ml
- Lovenox ® Neutralized ([2]; 1 μg/ml Peptide, Citrate): 0.020 ± 0.023 U/ml
- Lovenox ® Neutralized ([2]; 6 μg/ml Peptide, A Plasma): 0.018 ± 0.018 U/ml
- Lovenox ® Neutralized ([2]; 6 μg/ml Peptide, B Plasma): 0.042 ± 0.041 U/ml
- Lovenox ® Neutralized ([2]; 6 μg/ml Peptide, C Plasma): 0.0 U/ml
- Lovenox ® Neutralized ([2]; 6 μg/ml Peptide, Citrate): 0.013 ± 0.007 U/ml
- Lovenox ® Neutralized ([2]; 12 μg/ml Peptide, A Plasma): 0.025 ± 0.011 U/ml
- Lovenox ® Neutralized ([2]; 12 μg/ml Peptide, B Plasma): 0.042 ± 0.023 U/ml
- Lovenox ® Neutralized ([2]; 12 μg/ml Peptide, C Plasma): 0.008 ± 0.012 U/ml
- Lovenox ® Neutralized ([2]; 12 μg/ml Peptide, Citrate): 0.010 ± 0.007 U/ml
- Lovenox ® Neutralized ([2]; 60 μg/ml Peptide, A Plasma): 0.018 ± 0.020 U/ml
- Lovenox ® Neutralized ([2]; 60 μg/ml Peptide, B Plasma): 0.061 ± 0.067 U/ml
- Lovenox ® Neutralized ([2]; 60 μg/ml Peptide, C Plasma): 0.015 ± 0.012 U/ml
- Lovenox ® Neutralized ([2]; 60 μg/ml Peptide, Citrate): 0.017 ± 0.014 U/ml
- Lovenox ® Neutralized ([2]; 120 μg/ml Peptide, A Plasma): 0.043 ± 0.020 U/ml
- Lovenox ® Neutralized ([2]; 120 μg/ml Peptide, B Plasma): 0.092 ± 0.042 U/ml
- Lovenox ® Neutralized ([2]; 120 μg/ml Peptide, C Plasma): 0.003 ± 0.002 U/ml
- Lovenox ® Neutralized ([2]; 120 μg/ml Peptide, Citrate): 0.069 ± 0.035 U/ml
- effect in the anti-Factor Xa assay for Lovenox ([2]; in both citrate and plasma): minimal effects
- Unfractionated Heparin Neutralized ([3]; 1 μg/ml Peptide, A Plasma): 0.080 ± 0.050 U/ml
- Unfractionated Heparin Neutralized ([3]; 1 μg/ml Peptide, B Plasma): 0.0 U/ml
- Unfractionated Heparin Neutralized ([3]; 1 μg/ml Peptide, C Plasma): 0.0 U/ml
- Unfractionated Heparin Neutralized ([3]; 1 μg/ml Peptide, Citrate): 0.040 ± 0.017 U/ml
- Unfractionated Heparin Neutralized ([3]; 6 μg/ml Peptide, A Plasma): 0.045 ± 0.029 U/ml
- Unfractionated Heparin Neutralized ([3]; 6 μg/ml Peptide, B Plasma): 0.005 ± 0.007 U/ml
- Unfractionated Heparin Neutralized ([3]; 6 μg/ml Peptide, C Plasma): 0.008 ± 0.012 U/ml
- Unfractionated Heparin Neutralized ([3]; 6 μg/ml Peptide, Citrate): 0.064 ± 0.020 U/ml
- Unfractionated Heparin Neutralized ([3]; 12 μg/ml Peptide, A Plasma): 0.026 ± 0.018 U/ml
- Unfractionated Heparin Neutralized ([3]; 12 μg/ml Peptide, B Plasma): 0.008 ± 0.012 U/ml
- Unfractionated Heparin Neutralized ([3]; 12 μg/ml Peptide, C Plasma): 0.0 U/ml
- Unfractionated Heparin Neutralized ([3]; 12 μg/ml Peptide, Citrate): 0.047 ± 0.025 U/ml
- Unfractionated Heparin Neutralized ([3]; 60 μg/ml Peptide, A Plasma): 0.100 ± 0.021 U/ml
- Unfractionated Heparin Neutralized ([3]; 60 μg/ml Peptide, B Plasma): 0.084 ± 0.034 U/ml
- Unfractionated Heparin Neutralized ([3]; 60 μg/ml Peptide, C Plasma): 0.022 ± 0.017 U/ml
- Unfractionated Heparin Neutralized ([3]; 60 μg/ml Peptide, Citrate): 0.156 ± 0.046 U/ml
- Unfractionated Heparin Neutralized ([3]; 120 μg/ml Peptide, A Plasma): 0.112 ± 0.036 U/ml
- Unfractionated Heparin Neutralized ([3]; 120 μg/ml Peptide, B Plasma): 0.084 ± 0.018 U/ml
- Unfractionated Heparin Neutralized ([3]; 120 μg/ml Peptide, C Plasma): 0.090 ± 0.019 U/ml
- Unfractionated Heparin Neutralized ([3]; 120 μg/ml Peptide, Citrate): 0.199 ± 0.039 U/ml
- effect in the anti-Factor Xa assay for UFH ([3]; in both citrate and plasma): minimal effects
